Results from ChEMBL document CHEMBL5375986, “Discovery of Lead 2-Thiazolylhydrazones with Broad-Spectrum and Potent Antifungal Activity” (J Med Chem, 2023).
Values after ≈ are worked out from the molar mass of the structure shown.

Assays:
Cryptococcus neoformans [1] = experiment: Antifungal activity against Cryptococcus neoformans ATCC 24067 assessed as inhibition of fungal growth incubated for 24 to 48 hrs by CLSI based broth microdilution method; format: functional; details: time 24-48 hrs
[2] = Antifungal activity against Cryptococcus gattii ATCC 24065 assessed as inhibition of fungal growth incubated for 24 to 48 hrs by CLSI protocol based broth microdilution method; format: functional, Cryptococcus gattii VGI; details: time 24-48 hrs
Candida albicans [3] = experiment: Antifungal activity against Candida albicans SC5314 assessed as inhibition of fungal growth incubated for 24 to 48 hrs by CLSI protocol based broth microdilution method; format: functional; details: time 24-48 hrs
Pichia kudriavzevii = experiment: Antifungal activity against Candida krusei ATCC 20298 assessed as inhibition of fungal growth incubated for 24 to 48 hrs by CLSI protocol based broth microdilution method; format: functional; details: time 24-48 hrs
Candida parapsilosis = experiment: Antifungal activity against Candida parapsilosis ATCC 22019 assessed as inhibition of fungal growth incubated for 24 to 48 hrs by CLSI protocol based broth microdilution method; format: functional; details: Lodderomyces parapsilosis, time 24-48 hrs
Candida tropicalis = experiment: Antifungal activity against Candida tropicalis ATCC 750 assessed as inhibition of fungal growth incubated for 24 to 48 hrs by CLSI protocol based broth microdilution method; format: functional; details: time 24-48 hrs
[Candida] auris = Antifungal activity against Candida auris COLO 01 assessed as inhibition of fungal growth incubated for 24 to 48 hrs by CLSI protocol based broth microdilution method; format: functional; details: Candidozyma auris, time 24-48 hrs
Cryptococcus neoformans [4] = experiment: Antifungal activity against Cryptococcus neoformans assessed as inhibition of fungal growth; format: functional
[5] = Antifungal activity against Cryptococcus gattii VGI assessed as inhibition of fungal growth; format: functional
Nakaseomyces glabratus = experiment: Antifungal activity against Candida glabrata ATCC 2001 assessed as inhibition of fungal growth incubated for 24 to 48 hrs by CLSI protocol based broth microdilution method; format: functional; details: time 24-48 hrs
Candida albicans [6] = experiment: Antifungal activity against Candida albicans assessed as inhibition of fungal growth; format: functional

| Structure (SMILES) | MIC (Cryptococcus neoformans [1]) [µM] | MIC [2] [µM] | MIC (Candida albicans [3]) [µM] | MIC (Pichia kudriavzevii) [µM] | MIC (Candida parapsilosis) [µM] | MIC (Candida tropicalis) [µM] | MIC ([Candida] auris) [µM] | MIC (Cryptococcus neoformans [4]) [µM] | MIC [5] [µM] | MIC (Nakaseomyces glabratus) [µM] | MIC (Candida albicans [6]) [µM] |
| --- | --- | --- | --- | --- | --- | --- | --- | --- | --- | --- | --- |
| CCOC(=O)/C(C)=N/Nc1nc(-c2ccc(C#N)cc2)cs1 | 49.7 (≈ 15.6 µg/mL) | 24.8 (≈ 7.8 µg/mL) | 49.7 (≈ 15.6 µg/mL) | 99.4 (≈ 31.2 µg/mL) | 24.8 (≈ 7.8 µg/mL) | > 125 | 24.8 (≈ 7.8 µg/mL) | – | – | – | – |
| c1ccc(-c2csc(NN=C3CCCC3)n2)cc1 | – | – | – | – | – | – | – | 1.94 (≈ 0.499 µg/mL) | 1.94 (≈ 0.499 µg/mL) | – | – |
| COc1ccc(-c2csc(N/N=C(\C)CCC(=O)O)n2)cc1 | 0.8 (≈ 0.256 µg/mL) | 0.2 (≈ 0.0639 µg/mL) | 3 (≈ 0.958 µg/mL) | 1.5 (≈ 0.479 µg/mL) | 3 (≈ 0.958 µg/mL) | 6.1 (≈ 1.95 µg/mL) | 1.5 (≈ 0.479 µg/mL) | – | – | 48.9 (≈ 15.6 µg/mL) | – |
| CCOC(=O)c1sc(N/N=C\C2CCCCC2)nc1C | > 125 | > 125 | > 125 | > 125 | > 125 | > 125 | > 125 | – | – | > 125 | – |
| C/C(CCC(=O)O)=N\Nc1nc(-c2ccc(Br)cc2)cs1 | 2.6 (≈ 0.957 µg/mL) | 1.3 (≈ 0.479 µg/mL) | 0.3 (≈ 0.11 µg/mL) | 1.3 (≈ 0.479 µg/mL) | 1.3 (≈ 0.479 µg/mL) | 2.6 (≈ 0.957 µg/mL) | 0.3 (≈ 0.11 µg/mL) | – | – | 42.4 (≈ 15.6 µg/mL) | – |
| CCC(C)n1ncn(-c2ccc(N3CCN(c4ccc(OCC5COC(Cn6cncn6)(c6ccc(Cl)cc6Cl)O5)cc4)CC3)cc2)c1=O (stereo unspecified) [ITRACONAZOLE] | 1.4 (≈ 0.988 µg/mL) | 2.8 (≈ 1.98 µg/mL) | 0.7 (≈ 0.494 µg/mL) | 2.8 (≈ 1.98 µg/mL) | 0.4 (≈ 0.282 µg/mL) | 0.2 (≈ 0.141 µg/mL) | 0.4 (≈ 0.282 µg/mL) | – | – | 0.4 (≈ 0.282 µg/mL) | – |
| C/C(=N\Nc1nc(-c2ccc(Cl)cc2)cs1)C(=O)O | 5.4 (≈ 1.6 µg/mL) | 5.4 (≈ 1.6 µg/mL) | 26.4 (≈ 7.81 µg/mL) | 26.4 (≈ 7.81 µg/mL) | – | 106 (≈ 31.3 µg/mL) | 6.6 (≈ 1.95 µg/mL) | – | – | – | – |
| C/C(=N\Nc1nc(-c2ccc(F)cc2)cs1)C(=O)O | 11.1 (≈ 3.1 µg/mL) | 5.7 (≈ 1.59 µg/mL) | 28 (≈ 7.82 µg/mL) | 28 (≈ 7.82 µg/mL) | – | 112 (≈ 31.3 µg/mL) | 7 (≈ 1.96 µg/mL) | – | – | – | – |
| C/C(=N\Nc1nc(-c2ccc(C#N)cc2)cs1)C(=O)O | 22 (≈ 6.3 µg/mL) | 175 (≈ 50 µg/mL) | 109 (≈ 31.3 µg/mL) | 109 (≈ 31.3 µg/mL) | – | > 125 | 13.7 (≈ 3.92 µg/mL) | – | – | – | – |
| C/C(CCC(=O)O)=N\Nc1nc(-c2ccc(C#N)cc2)cs1 | 1.5 (≈ 0.472 µg/mL) | 1.5 (≈ 0.472 µg/mL) | 3.1 (≈ 0.975 µg/mL) | 1.5 (≈ 0.472 µg/mL) | 6.2 (≈ 1.95 µg/mL) | 24.8 (≈ 7.8 µg/mL) | 0.8 (≈ 0.251 µg/mL) | – | – | 49.7 (≈ 15.6 µg/mL) | – |
| CCOC(=O)Cc1csc(NN=C(C)C(=O)OCC)n1 | > 125 | > 125 | 104 (≈ 31.3 µg/mL) | 13 (≈ 3.89 µg/mL) | 104 (≈ 31.3 µg/mL) | 104 (≈ 31.3 µg/mL) | 104 (≈ 31.3 µg/mL) | – | – | 52.2 (≈ 15.6 µg/mL) | – |
| OC(Cn1cncn1)(Cn1cncn1)c1ccc(F)cc1F [FLUCONAZOLE] | – | 52.2 (≈ 16 µg/mL) | 1.6 (≈ 0.49 µg/mL) | 104 (≈ 32 µg/mL) | 3.3 (≈ 1.01 µg/mL) | 0.8 (≈ 0.245 µg/mL) | – | – | – | 13.1 (≈ 4.01 µg/mL) | – |
| C(=N\Nc1nc(-c2ccccc2)cs1)/C1CCCCC1 | – | – | – | – | – | – | – | 0.9 (≈ 0.257 µg/mL) | 0.9 (≈ 0.257 µg/mL) | – | – |
| CCOC(=O)Cc1csc(N/N=C\C2CCCCC2)n1 | 106 (≈ 31.3 µg/mL) | 106 (≈ 31.3 µg/mL) | 52.9 (≈ 15.6 µg/mL) | 0.8 (≈ 0.236 µg/mL) | 52.9 (≈ 15.6 µg/mL) | 6.6 (≈ 1.95 µg/mL) | 52.9 (≈ 15.6 µg/mL) | – | – | > 125 | – |
| C/C(=N\Nc1nc(-c2ccc(Br)cc2)cs1)C(=O)O | 2.4 (≈ 0.816 µg/mL) | 2.4 (≈ 0.816 µg/mL) | 23 (≈ 7.82 µg/mL) | 23 (≈ 7.82 µg/mL) | – | 91.9 (≈ 31.3 µg/mL) | 23 (≈ 7.82 µg/mL) | – | – | – | – |
| CCOC(=O)/C(C)=N/Nc1nc(-c2ccc(Cl)cc2)cs1 | > 125 | > 125 | > 125 | > 125 | > 125 | > 125 | > 125 | – | – | > 125 | – |
| COc1ccc(-c2csc(N/N=C/C3CCCCC3)n2)cc1 | – | – | – | – | – | – | – | 0.79 (≈ 0.249 µg/mL) | 1.58 (≈ 0.498 µg/mL) | – | – |
| CC(CCO)=NNc1nc(-c2ccc(C#N)cc2)cs1 | – | – | – | – | – | – | – | 0.12 (≈ 0.0344 µg/mL) | 0.12 (≈ 0.0344 µg/mL) | – | 1.95 (≈ 0.558 µg/mL) |
| C/C(CCC(=O)O)=N\Nc1nc(-c2ccccc2)cs1 | 6.7 (≈ 1.94 µg/mL) | 6.7 (≈ 1.94 µg/mL) | 3.4 (≈ 0.984 µg/mL) | 13.5 (≈ 3.91 µg/mL) | 13.5 (≈ 3.91 µg/mL) | 3.4 (≈ 0.984 µg/mL) | 3.4 (≈ 0.984 µg/mL) | – | – | 1.7 (≈ 0.492 µg/mL) | – |
| CCOC(=O)c1sc(NN=C2CCOCC2)nc1C | > 125 | > 125 | > 125 | > 125 | > 125 | > 125 | > 125 | – | – | > 125 | – |
